These results are taken from US20160090556A1, “PRODUCTS COMPRISING MALODOR REDUCTION MATERIALS” (The Procter & Gamble Company, priority 2014, published 2016).

Molecules are shown by their SMILES.

The nature of the first series: Liquid dish neat product liquid-air partition coefficient. It is filed as physicochemical.
Conditions: not given
Take `CC1=CCC(O)(C(C)C)CC1` (stereo not shown) [Material 800]: the “Log of liquid dish neat product liquid-air partition coefficient (Comment Code K/L)” value (shortened to “Log … (Comment Code K/L)”) is “K (Log of liquid dish neat product liquid-air partition coefficient greater than or equal to −7)”. Regarding `C=CCCC(=O)c1ccccc1` [Material 792], the “Log … (Comment Code K/L)” value is “K (Log of liquid dish neat product liquid-air partition coefficient greater than or equal to −7)”. On the same count and under the same terms, with `CC(=O)c1cc2c(cc1C)C(C)(C)C(C)C2(C)C` (stereo not shown) [Material 927] the entry was “K (Log of liquid dish neat product liquid-air partition coefficient greater than or equal to −7)”.

For the molecule `CC(C)(C)c1ccc(CCC=O)cc1` [Material 601], the “Log … (Comment Code K/L)” value is given as “K (Log of liquid dish neat product liquid-air partition coefficient greater than or equal to −7)”. Consider `CC(C)C(=O)OC1CC2CCC1(C)C2(C)C` (stereo not shown) [Material 603], for which the “Log … (Comment Code K/L)” value is on record as “K (Log of liquid dish neat product liquid-air partition coefficient greater than or equal to −7)”. For `CC1=CC(=O)CC(C)C12CCC(=C(C)C)C2` (stereo not shown) [Material 610], the “Log … (Comment Code K/L)” value is listed as “K (Log of liquid dish neat product liquid-air partition coefficient greater than or equal to −7)”.

On to `CC(=O)c1cc(C(C)(C)C)cc2c1CCC2(C)C` [Material 563], for which the “Log … (Comment Code K/L)” value is “K (Log of liquid dish neat product liquid-air partition coefficient greater than or equal to −7)”.

In the case of `CCCOC(C)OCCc1ccccc1` (stereo not shown) [Material 766], the “Log … (Comment Code K/L)” value was “K (Log of liquid dish neat product liquid-air partition coefficient greater than or equal to −7)”.

`CCCCOC(=O)C(C)OC(=O)CCC` (stereo not shown) [Material 595]: the “Log … (Comment Code K/L)” value is on record as “K (Log of liquid dish neat product liquid-air partition coefficient greater than or equal to −7)”. `C=C1C2CCC(C2)C1(C)CCC=C(C)CO` (stereo not shown) [Material 616]: the “Log … (Comment Code K/L)” value is “K (Log of liquid dish neat product liquid-air partition coefficient greater than or equal to −7)”. For `CC1=CC[C@@H]2C3CC([C@@H]2C1)[C@@]1(C3)OC1C` (stereo partly shown) [Material 1007], the “Log … (Comment Code K/L)” value is on record as “K (Log of liquid dish neat product liquid-air partition coefficient greater than or equal to −7)”. The same measure, in the same setting: the value for `CCC=CCCC=CCO` [Material 865] was “K (Log of liquid dish neat product liquid-air partition coefficient greater than or equal to −7)”; that for `CCCC(O)Cc1ccccc1` (stereo not shown) [Material 730] was “K (Log of liquid dish neat product liquid-air partition coefficient greater than or equal to −7)”; that for `CC1(O)CCC2=C(CCCC2(C)C)C1` (stereo not shown) [Material 675] was “K (Log of liquid dish neat product liquid-air partition coefficient greater than or equal to −7)”. The same measure, in the same setting: the value for `CCCCC/C=C/C=C\C(=O)OCC` [Material 942] was “K (Log of liquid dish neat product liquid-air partition coefficient greater than or equal to −7)”.

Still in this series, the particulars now being: class code letter within Comment Code.
In the case of `C=CCc1cc(OC)c2c(c1)OCO2` [Material 37], the “Log … (Comment Code K/L)” value is on record as “K (Log of liquid dish neat product liquid-air partition coefficient greater than or equal to −7)”. The same measure, in the same setting: the value for `CC1OCC(c2ccccc2)O1` (stereo not shown) [Material 190] was “K (Log of liquid dish neat product liquid-air partition coefficient greater than or equal to −7)”; that for `CC1CCCCCCCCCCCCC(=O)C1` (stereo not shown) [Material 206] was “K (Log of liquid dish neat product liquid-air partition coefficient greater than or equal to −7)”; that for `CCOC(C)OCCc1ccccc1` (stereo not shown) [Material 415] was “K (Log of liquid dish neat product liquid-air partition coefficient greater than or equal to −7)”. On the same count and under the same terms, the value for `CCCCCCCCCCCCCC(=O)OC(C)C` [Material 196] was “K (Log of liquid dish neat product liquid-air partition coefficient greater than or equal to −7)”; that for `CC(=O)OCC=Cc1ccccc1` [Material 553] was “K (Log of liquid dish neat product liquid-air partition coefficient greater than or equal to −7)”; that for `CC1(C)CCc2ccc(CCC=O)cc21` [Material 260] was “K (Log of liquid dish neat product liquid-air partition coefficient greater than or equal to −7)”. `C=CC(O)(CC)CCC=C(C)C` (stereo not shown) [Material 390]: the “Log … (Comment Code K/L)” value is “K (Log of liquid dish neat product liquid-air partition coefficient greater than or equal to −7)”. Same read-out and setting: with `CCCCCCCCOC(=O)c1ccco1` [Material 28] the entry was “K (Log of liquid dish neat product liquid-air partition coefficient greater than or equal to −7)”. Same read-out and setting: with `C=CC1(C)CCC(C(C)(C)O)O1` (stereo not shown) [Material 156] the entry was “K (Log of liquid dish neat product liquid-air partition coefficient greater than or equal to −7)”; with `C=CC(C)(O)CCC=C(C)CCC=C(C)C` (stereo not shown) [Material 63], “K (Log of liquid dish neat product liquid-air partition coefficient greater than or equal to −7)”; with `C=C(C)C1CC=C(C)C(O)C1` (stereo not shown) [Material 170], “K (Log of liquid dish neat product liquid-air partition coefficient greater than or equal to −7)”.

As for `CC(C)=CCCC(C)=CC1OCC(C)O1` (stereo not shown) [Material 519], the “Log … (Comment Code K/L)” value is listed as “K (Log of liquid dish neat product liquid-air partition coefficient greater than or equal to −7)”.

In the case of `CC(C)CC1CC(C)(O)CCO1` (stereo not shown) [Material 350], the “Log … (Comment Code K/L)” value was “K (Log of liquid dish neat product liquid-air partition coefficient greater than or equal to −7)”.

Take `C=CCCCCCCCCC(=O)OCCC(C)C` [Material 234]: the “Log … (Comment Code K/L)” value is “K (Log of liquid dish neat product liquid-air partition coefficient greater than or equal to −7)”. With `CCCCCCCCCCCC(=O)OC(C)C` [Material 197], the “Log … (Comment Code K/L)” value is listed as “K (Log of liquid dish neat product liquid-air partition coefficient greater than or equal to −7)”. Still for that read-out and setting: the value for `CCc1ccccc1CC(C)(C)C=O` [Material 356] was “K (Log of liquid dish neat product liquid-air partition coefficient greater than or equal to −7)”; that for `C=CC1(C)Cc2occ(C)c2CC1C(=C)C` (stereo not shown) [Material 488] was “K (Log of liquid dish neat product liquid-air partition coefficient greater than or equal to −7)”; that for `CC/C=C\CCOC(=O)C/C=C\CC` [Material 534] was “K (Log of liquid dish neat product liquid-air partition coefficient greater than or equal to −7)”. Take `c1ccc(Cc2ccccc2)cc1` [Material 429]: the “Log … (Comment Code K/L)” value is listed as “K (Log of liquid dish neat product liquid-air partition coefficient greater than or equal to −7)”.

Take `CCCCCCCC(=O)OCc1ccco1` [Material 336]: the “Log … (Comment Code K/L)” value is “K (Log of liquid dish neat product liquid-air partition coefficient greater than or equal to −7)”.

The series is the same for the next values; noted with them: code letters K, L.
In the case of `CC1CCCCCCCCCCCCC(=O)C1` (stereo not shown) [Material 206], the “Comment Code: Log of liquid dish neat product liquid-air partition coefficient” value (“Comment Code: Log” below) is “K (Log of liquid dish neat product liquid-air partition coefficient greater than or equal to −7)”. The same measure, in the same setting: with `CC1(C)CCc2ccc(CCC=O)cc21` [Material 260] the entry was “K (Log of liquid dish neat product liquid-air partition coefficient greater than or equal to −7)”. Still for that read-out and setting: the value for `CC(=O)c1cc2c(cc1C)C(C)(C)C(C)C2(C)C` (stereo not shown) [Material 927] was “K (Log of liquid dish neat product liquid-air partition coefficient greater than or equal to −7)”. Regarding `C=CC(C)(CCC=C(C)C)OC(=O)CCC` (stereo not shown) [Material 151], the “Comment Code: Log” value is given as “K (Log of liquid dish neat product liquid-air partition coefficient greater than or equal to −7)”. The same measure, in the same setting: the value for `CC(C)C(=O)OC1CC2CCC1(C)C2(C)C` (stereo not shown) [Material 603] was “K (Log of liquid dish neat product liquid-air partition coefficient greater than or equal to −7)”; that for `CCCc1ccc(O)c(OC)c1` [Material 440] was “K (Log of liquid dish neat product liquid-air partition coefficient greater than or equal to −7)”. For the molecule `CNC(=O)C(C)(C(C)C)C(C)C` [Material 846], the “Comment Code: Log” value is given as “K (Log of liquid dish neat product liquid-air partition coefficient greater than or equal to −7)”.

With `CC=CC(=O)C1C(C)=CCCC1(C)C` (stereo not shown) [Material 880], the “Comment Code: Log” value is given as “K (Log of liquid dish neat product liquid-air partition coefficient greater than or equal to −7)”. On to `C=C1C2CCC(C2)C1(C)CCC=C(C)CO` (stereo not shown) [Material 616], for which the “Comment Code: Log” value is “K (Log of liquid dish neat product liquid-air partition coefficient greater than or equal to −7)”.

As for `CC(C=O)=Cc1ccccc1` [Material 701], the “Comment Code: Log” value is given as “K (Log of liquid dish neat product liquid-air partition coefficient greater than or equal to −7)”. On the same count and under the same terms, with `CC1=CC[C@@H]2C3CC([C@@H]2C1)[C@@]1(C3)OC1C` (stereo partly shown) [Material 1007] the entry was “K (Log of liquid dish neat product liquid-air partition coefficient greater than or equal to −7)”; with `CC=Cc1ccc(O)c(OC)c1` [Material 214], “K (Log of liquid dish neat product liquid-air partition coefficient greater than or equal to −7)”; with `CC1(C)C2CCC3(C2)C1C1(CCC3(C)C)OCCO1` (stereo not shown) [Material 1145], “K (Log of liquid dish neat product liquid-air partition coefficient greater than or equal to −7)”. `CC(C)C1CCC(CO)CC1` (stereo not shown) [Material 133]: the “Comment Code: Log” value is recorded as “K (Log of liquid dish neat product liquid-air partition coefficient greater than or equal to −7)”.

For the molecule `C=CC1(C)Cc2occ(C)c2CC1C(=C)C` (stereo not shown) [Material 488], the “Comment Code: Log” value is reported as “K (Log of liquid dish neat product liquid-air partition coefficient greater than or equal to −7)”.

Still in this series, the particulars now being: codes K/L of the Comment Code, Table 1.
Regarding `CC1(C)C2CCC3(C2)C1C1(CCC3(C)C)OCCO1` (stereo not shown) [Material 1145], the “Comment Code: Log” value is reported as “K (Log of liquid dish neat product liquid-air partition coefficient greater than or equal to −7)”.
